{"source": "patent US12410157B2", "about": "“Compound useful as toll-like receptor 7 activation inhibitor” (TOYAMA PREFECTURAL UNIVERSITY, priority 2020, dated 2025)", "key": {"TLR7 [1]": {"target": "T1, TLR7 (Mus musculus, UniProt P58681)", "T1 construct": "from tissue; host or cells: whole animal, C57BL/6N mice (serum IFN-α after R848)", "T1 sequence (P58681 27-1050)": "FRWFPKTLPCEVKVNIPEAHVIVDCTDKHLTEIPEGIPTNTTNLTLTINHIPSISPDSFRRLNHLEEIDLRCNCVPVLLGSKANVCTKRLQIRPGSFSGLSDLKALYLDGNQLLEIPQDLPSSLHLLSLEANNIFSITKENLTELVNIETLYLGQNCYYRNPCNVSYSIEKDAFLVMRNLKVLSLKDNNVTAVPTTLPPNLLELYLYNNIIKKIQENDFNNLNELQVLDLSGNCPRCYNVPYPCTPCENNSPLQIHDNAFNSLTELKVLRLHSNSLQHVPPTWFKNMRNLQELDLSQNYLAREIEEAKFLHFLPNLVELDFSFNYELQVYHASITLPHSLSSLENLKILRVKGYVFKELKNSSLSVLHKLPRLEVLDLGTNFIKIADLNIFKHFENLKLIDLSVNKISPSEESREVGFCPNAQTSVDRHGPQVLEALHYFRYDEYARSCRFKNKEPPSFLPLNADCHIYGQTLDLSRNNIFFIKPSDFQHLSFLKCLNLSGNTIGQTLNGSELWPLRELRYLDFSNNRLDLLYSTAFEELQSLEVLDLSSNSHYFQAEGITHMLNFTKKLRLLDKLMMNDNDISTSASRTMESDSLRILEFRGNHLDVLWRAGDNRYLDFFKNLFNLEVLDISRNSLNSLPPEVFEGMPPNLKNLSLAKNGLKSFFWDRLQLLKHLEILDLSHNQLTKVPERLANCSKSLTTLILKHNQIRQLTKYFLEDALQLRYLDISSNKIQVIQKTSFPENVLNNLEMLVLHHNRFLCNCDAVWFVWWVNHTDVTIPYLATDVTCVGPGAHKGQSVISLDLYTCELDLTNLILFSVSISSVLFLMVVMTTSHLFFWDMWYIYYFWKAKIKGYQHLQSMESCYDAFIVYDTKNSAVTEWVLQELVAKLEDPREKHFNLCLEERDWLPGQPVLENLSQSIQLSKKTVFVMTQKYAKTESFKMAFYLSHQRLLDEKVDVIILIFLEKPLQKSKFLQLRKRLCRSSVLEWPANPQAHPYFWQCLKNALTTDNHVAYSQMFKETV", "experiment": "TLR7 inhibition (R848-induced serum IFN-α) by intraperitoneal administration in mice", "format": "in vivo, mice (C57BL/6N)", "settings": "Example 13", "experimental": "Normal mice (C57BL/6N, 11 weeks old, female) were administered B2-24-4-5A·HCOOH (1, 5, 10, 100 and 1000 μg) or hydroxychloroquine sulfate (HCQ, 1000 μg) as a comparison drug intraperitoneally, followed by 5 μg of R848 after 30 minutes. The solvent was saline solution. 1 hour after R848 administration, blood was collected and the concentration of IFN-α in the serum was quantified using ELISA (used kit: Mouse IFN alpha Platinum ELISA (trade name), eBioscience). The plots in FIG. 7 represent the data for each individual, each bold line represents the mean value of each group data, and each error bar represents the standard error of each group data.\nThe same method as in Example 13 was used to study the TLR7 inhibition effect of intraperitoneal administration of B2-24-4·HCl, B2-24-4-5A or B2-24-4-5A·HCOOH in mice. B2-24-4·HCl, B2-24-4-5A and B2-24-4-5A·HCOOH were administered at a dose of 10 μg. The plots in FIG. 8 represent the data for each individual, each bold line represents the mean of each group data, and each error bar represents the standard error of each group data."}, "[2]": {"target": "B lymphocyte stimulator (BLyS) (Homo sapiens, UniProt Q9Y275)", "sequence (Q9Y275 134-285 limits assumed)": "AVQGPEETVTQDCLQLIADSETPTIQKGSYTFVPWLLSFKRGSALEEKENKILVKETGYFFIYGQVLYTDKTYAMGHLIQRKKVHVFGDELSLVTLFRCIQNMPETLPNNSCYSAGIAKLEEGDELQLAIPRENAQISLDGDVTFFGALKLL", "settings": "after 52 weeks of intravenous administration (10 mg/kg); cited from earlier work"}, "[3]": {"system": "systemic lupus erythematosus model mice (NZBWF1)", "experiment": "Therapeutic effect in mouse model of spontaneous systemic lupus erythematosus", "format": "in vivo", "experimental": "Systemic lupus erythematosus model mice (NZBWF1, 20 weeks old, female, n=55) were divided into saline-administered group (control, n=25), B2-24-4-5A·HCOOH-administered group (n=10), B2-24-4·HCOOH-administered group (n=5) and HCQ-administered group (n=15). The saline-administered group received saline (100 l) orally once a day, every day; the B2-24-4-5A·HCOOH-administered group received 10 mg/kg of B2-24-4-5A·HCOOH (100 l) orally once a day, every day; the B2-24-4·HCOOH-administered group received 10 mg/kg of B2-24-4·HCOOH (100 l) orally once a day, every day; the HCQ-administered group received 10 mg/kg of HCQ (100 l) orally once a day, every day. Fifteen weeks after the start of treatment, urine was collected from surviving mice in the saline-administered group (control, n=17), B2-24-4-5A·HCOOH-administered group (n=10), B2-24-4·HCOOH-administered group (n=5), and HCQ-administered group (n=12), and the mice were euthanized. After euthanasia, blood was drawn from the abdominal aorta of the mice, and the kidneys and spleen were removed.\nMice that died of natural causes during the 15-week period from the start of treatment were counted as deaths, and survival analysis was performed using the Kaplan Meier method. Blood collected from the abdominal aorta of each mouse, excluding the deceased cases, was centrifuged and serum was prepared. Determination of urea nitrogen and creatinine levels in serum was entrusted to Oriental Yeast Co. Albumin levels in urine were determined by ELISA (used kit: Levis Urinary Albumin-Mouse (S-type) (trade name) (Fujifilm Wako Shibayagi Corporation)). The removed kidneys were fixed with 4% (w/v) paraformaldehyde, and immunohistochemical staining was entrusted to Morpho Technology, Inc. In PAS-stained kidney tissue sections, histological findings of 100 glomeruli were evaluated. For increased cells and substrate in the mesangial area, endothelial cell swelling and cellular infiltration of the capillary lumen (intratubular proliferation), and glomeruli with inflammatory crescents (extratubular proliferation), each of the 100 glomeruli was assigned a grade from grade 0 to grade 2 according to severity and scored on a 6-point scale.\nFIG. 10F is a photograph showing C3 deposition in the glomeruli of a mouse (#1) in the saline-administered group, a mouse (#10) in the B2-24-4-5A·HCOOH-administered group, a mouse (#4) in the B2-24-4·HCOOH-administered group and a mouse (#14) in the HCQ-administered group. […] In the renal tissue sections of a mouse (#1) in the saline-administered group, findings of active glomerulonephritis such as diffuse mesangial and intratubular proliferation were observed. […] The plots in FIGS. 10B, 10C, and 10D show the data for each individual, each bold line is the mean of the group data, and each error bar standard error. Scale bars in FIGS. 10E and 10F represent 100 μm. […]"}, "TLR7 [4]": {"target": "T2, TLR7 (Homo sapiens, UniProt Q9NYK1)", "T2 construct": "PBMCs were isolated from 7 mL of blood collected from patients with systemic lupus erythematosus; endogenous in cells; host or cells: PBMCs from patients with systemic lupus erythematosus", "T2 sequence (Q9NYK1 27-1049)": "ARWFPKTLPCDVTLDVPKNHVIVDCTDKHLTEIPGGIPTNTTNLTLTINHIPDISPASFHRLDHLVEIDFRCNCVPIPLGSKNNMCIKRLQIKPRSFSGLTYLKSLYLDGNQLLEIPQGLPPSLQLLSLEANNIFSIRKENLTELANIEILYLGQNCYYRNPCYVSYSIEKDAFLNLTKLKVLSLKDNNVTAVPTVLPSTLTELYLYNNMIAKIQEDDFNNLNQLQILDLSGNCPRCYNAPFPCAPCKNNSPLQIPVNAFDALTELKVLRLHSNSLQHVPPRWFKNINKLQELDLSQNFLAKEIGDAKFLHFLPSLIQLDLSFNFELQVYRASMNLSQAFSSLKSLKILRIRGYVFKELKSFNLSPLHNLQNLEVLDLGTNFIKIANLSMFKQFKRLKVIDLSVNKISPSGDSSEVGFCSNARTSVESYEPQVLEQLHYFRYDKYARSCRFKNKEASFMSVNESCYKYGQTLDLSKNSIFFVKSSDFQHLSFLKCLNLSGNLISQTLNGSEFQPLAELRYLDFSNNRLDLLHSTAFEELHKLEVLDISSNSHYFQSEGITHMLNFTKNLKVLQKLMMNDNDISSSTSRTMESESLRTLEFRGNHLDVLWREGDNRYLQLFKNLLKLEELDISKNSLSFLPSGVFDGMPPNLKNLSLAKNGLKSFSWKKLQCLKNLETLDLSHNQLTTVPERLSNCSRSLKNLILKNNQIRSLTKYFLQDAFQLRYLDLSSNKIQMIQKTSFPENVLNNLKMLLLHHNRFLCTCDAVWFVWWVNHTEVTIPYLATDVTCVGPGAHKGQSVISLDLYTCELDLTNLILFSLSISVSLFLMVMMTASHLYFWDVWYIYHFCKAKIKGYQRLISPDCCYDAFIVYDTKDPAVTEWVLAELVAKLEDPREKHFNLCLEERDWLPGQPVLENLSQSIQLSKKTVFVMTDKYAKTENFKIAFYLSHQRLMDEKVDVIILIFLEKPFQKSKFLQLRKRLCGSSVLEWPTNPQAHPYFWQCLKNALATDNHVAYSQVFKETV", "experiment": "TLR7 inhibitory effect (IL-6) in PBMCs from patients with systemic lupus erythematosus", "format": "cell-based", "settings": "SLE patient PBMCs", "experimental": "The TLR7 inhibitory effect of B2-24-4-5A·HCOOH on PBMCs derived from patients with systemic lupus erythematosus was studied. PBMCs were isolated from 7 mL of blood collected from patients with systemic lupus erythematosus. Isolated PBMCs were spread into each well of a 96-well plate containing RPMI 1640 medium containing 10% (v/v) fetal calf serum (FCS), penicillin, streptomycin, L-glutamic acid, and 2-mercaptoethanol at 0.5×10^5/100 μL and incubated at 37° C. in the presence of 5% (v/v) CO2. 50 μL of B2-24-4-5A·HCOOH, B2-24-4·HCl or the comparative drug hydroxychloroquine sulfate (HCQ) was added to each well to achieve a final concentration of 0.1 μM, 0.5 μM, 1 μM, 5 μM, 10 μM or 50 μM and incubated for 30 minutes. The TLR7 ligand, Gardiquimod (Invivogen), was added at a final concentration of 3 μg/mL and incubated for 24 hours. After incubation, all culture media were collected and the concentration of IL-6 in the culture medium was quantified using ELISA (used kit: human IL-6 DuoSet ELISA (trade name), manufactured by R&D Systems)."}}, "note": "Values joined by “and” are separate entries in the source; they are usually repeats but may differ in a detail not shown here. Identical values can stand only once. “Also recorded” adds a separate entry of the source. Counter-ions that a name gives are not always drawn."}
{"compound": "C=C(C)[C@@H]1CC[C@]2(COC(=O)C2)C[C@H]1c1ccc(CN2CCNCC2)cc1", "note": "[B2-24-4-5A]", "values": [{"measurement": "Order of strength of the effect on IFN-α production", "setting": "TLR7 [1]; 10 μg, FIG. 8", "value": "stronger with B2-24-4-5A·HCOOH, B2-24-4-5A and B2-24-4·HCl in that order"}, {"measurement": "IFN-α production induced by R848", "setting": "TLR7 [1]; dose of 10 μg intraperitoneally", "value": "attenuated"}]}
{"compound": "belimumab", "values": [{"measurement": "Responder rate", "setting": "[2]", "value": 54, "unit": "%"}]}
{"compound": "CCN(CCO)CCCC(C)Nc1ccnc2cc(Cl)ccc12", "note": "(centres unmarked) [HCQ, hydroxychloroquine sulfate]", "values": [{"measurement": "Surviving mice fifteen weeks after the start of treatment", "setting": "[3]; 10 mg/kg orally once a day, groups started with n=10, n=5, n=15 (HCQ)", "value": 12}, {"measurement": "Tubulo-interstitial inflammation", "setting": "[3]; per mouse", "value": "Not found; also recorded: Found"}, {"measurement": "score", "setting": "[3]; per mouse, histological score on a 6-point scale", "value": "1.74 and 0.70 and 0.00 and 1.64 and 0.30 and 2.58 and 0.07 and 0.14 and 3.14 and 0.37 and 2.19 and 0.18"}, {"measurement": "Inside 0", "setting": "[3]; per mouse, of 100 glomeruli, endothelial cell swelling and cellular infiltration of capillary lumen, Grade 0", "value": "43 and 87 and 100 (2×) and 38 and 95 and 12 and 99 and 15 and 96 and 22 and 98"}, {"measurement": "Inside 1", "setting": "[3]; per mouse, of 100 glomeruli, endothelial cell swelling and cellular infiltration of capillary lumen, Grade 1", "value": "38 and 13 and 0 (2×) and 47 and 5 and 36 and 1 and 64 and 4 and 58 and 2"}, {"measurement": "Inside 2", "setting": "[3]; per mouse, of 100 glomeruli, endothelial cell swelling and cellular infiltration of capillary lumen, Grade 2", "value": "19 and 0 (7×) and 15 and 52 and 21 and 20"}, {"measurement": "Outside 0", "setting": "[3]; per mouse, of 100 glomeruli, glomerulus with semilunar, Grade 0", "value": "100 (10×) and 53 and 96"}, {"measurement": "Outside 1", "setting": "[3]; per mouse, of 100 glomeruli, glomerulus with semilunar, Grade 1", "value": "0 (10×) and 26 and 4"}, {"measurement": "Outside 2", "setting": "[3]; per mouse, of 100 glomeruli, glomerulus with semilunar, Grade 2", "value": "0 (11×) and 21"}, {"measurement": "Mes0", "setting": "[3]; per mouse, of 100 glomeruli, increase in cells and substrates in the mesangium region, Grade 0: None, 10 mg/kg orally, 15 weeks, 10 mg/kg", "value": "15 and 43 and 100 and 16 and 75 and 8 and 93 and 87 and 7 and 68 and 20 and 84"}, {"measurement": "Mes1", "setting": "[3]; per mouse, of 100 glomeruli, mesangium region, Grade 1: Moderate or lower", "value": "72 and 57 and 0 and 81 and 25 and 66 and 7 and 13 and 46 and 31 and 43 and 16"}, {"measurement": "Mes2", "setting": "[3]; per mouse, of 100 glomeruli, mesangium region, Grade 2: Moderate or higher", "value": "13 and 0 (6×) and 3 and 26 and 47 and 1 and 37"}, {"measurement": "Order of strength of the effect on IL-6 production", "setting": "TLR7 [4]; FIG. 4", "value": "stronger for B2-24-4·HCl, B2-24-4-5A·HCOOH, and HCQ, in that order"}, {"measurement": "IL-6 production induced by gardiquimod stimulation", "setting": "TLR7 [4]; 0.1-50 μM, Gardiquimod 3 μg/mL, 24 hours", "value": "attenuated"}]}
